Experiments:
[1] = biological target: HypC/HypD complex (A. aeolicus) (Aquifex aeolicus) (UniProt O67225); assay: SEC; Superdex200 10/300GL, 50 mM Tris-HCl (pH 8.0), 200 mM NaCl, 1 mM DTT; HypC, HypD and HypX mixed in equal molar amount; apparent mass
[2] = biological target: A. aeolicus HypC (Aquifex aeolicus); assay: SEC; Superdex75 10/300GL, 50 mM Tris-HCl (pH 8.0), 200 mM NaCl, 1 mM DTT; HypC alone, HypD alone, and HypC and HypD mixed in equal molar amount; apparent masses
HypX [3] = biological target: T1, HypX (Aquifex aeolicus, UniProt O67224); assay: X-ray crystallography; native MS; format: binding; settings: co-purified from E. coli, none added; non-covalent; folded conformation, C-terminal part of cavity; also Form II crystal 6J1E
T1 construct: gene hoxX; residues up to 562 described; acid-denatured mass 67,531 Da; monomer; N-terminal domain 1-270, C-terminal domain 289-542

HypX [4] = biological target: T2, HypX (Aquifex aeolicus, UniProt O67224, A392F/I419F); assay: X-ray crystallography; format: binding; settings: co-purified from E. coli; extended conformation, without THF (THF-bound structure 6J1J also holds CoA)
T2 construct: gene hoxX; residues up to 562 described; acid-denatured mass 67,531 Da; monomer; N-terminal domain 1-270, C-terminal domain 289-542

HypX [5] = biological target: T3, HypX (Aquifex aeolicus, UniProt O67224, R9A/Q15A/R131A/R542A); assay: X-ray crystallography; format: binding; settings: co-purified from E. coli; folded conformation
T3 construct: gene hoxX; residues up to 562 described; acid-denatured mass 67,531 Da; monomer; N-terminal domain 1-270, C-terminal domain 289-542

HypX [6] = biological target: T4, HypX (Aquifex aeolicus, UniProt O67224, Q15A/R131A/S194A/Q195A/N306A/R542A); assay: native MS; format: binding; settings: non-denaturing, 500 mM ammonium acetate pH 6.8; co-purified from E. coli; CoA absent in crystal structure 6J1H
T4 construct: gene hoxX; residues up to 562 described; acid-denatured mass 67,531 Da; monomer; N-terminal domain 1-270, C-terminal domain 289-542

HypX [7] = biological target: T1, HypX; assay: X-ray crystallography, crystal soaking; format: binding; settings: Form I crystals soaked with THF; N-terminal domain, chain A only
HypX [8] = biological target: T2, HypX; assay: X-ray crystallography, crystal soaking; format: binding; settings: CoA also bound, extended conformation; N-terminal region of cavity

T1 sequence (O67224 entry or part of it): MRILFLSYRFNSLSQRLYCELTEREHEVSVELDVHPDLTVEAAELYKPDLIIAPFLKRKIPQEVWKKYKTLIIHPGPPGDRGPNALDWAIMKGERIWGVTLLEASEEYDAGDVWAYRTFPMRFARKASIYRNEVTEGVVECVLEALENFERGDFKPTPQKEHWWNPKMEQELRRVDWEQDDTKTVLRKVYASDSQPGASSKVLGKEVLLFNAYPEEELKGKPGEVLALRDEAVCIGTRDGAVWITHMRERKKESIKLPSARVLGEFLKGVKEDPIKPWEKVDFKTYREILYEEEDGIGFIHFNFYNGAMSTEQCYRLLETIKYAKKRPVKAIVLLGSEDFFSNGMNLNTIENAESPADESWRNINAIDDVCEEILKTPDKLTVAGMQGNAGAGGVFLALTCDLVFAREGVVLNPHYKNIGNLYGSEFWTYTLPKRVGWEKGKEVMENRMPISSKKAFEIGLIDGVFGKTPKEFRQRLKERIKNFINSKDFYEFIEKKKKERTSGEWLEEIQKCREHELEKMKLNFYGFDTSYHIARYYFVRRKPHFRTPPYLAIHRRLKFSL
T2 sequence (O67224 entry or part of it A392F/I419F): as the sequence (O67224 entry or part of it) above, with A392F, I419F counted along it
T3 sequence (O67224 entry or part of it R9A/Q15A/R131A/R542A): as the sequence (O67224 entry or part of it) above, with R9A, Q15A, R131A, R542A counted along it
T4 sequence (O67224 entry or part of it Q15A/R131A/S194A/Q195A/N306A/R542A): as the sequence (O67224 entry or part of it) above, with Q15A, R131A, S194A, Q195A, N306A, R542A counted along it

For HypX from Aquifex aeolicus (enzyme), which stoichiometry N [1] is on record?
The stoichiometry N was 1.

For A. aeolicus HypC (natural protein), which stoichiometry N [2] is on record?
Its stoichiometry N is 2.

CC(C)(COP(=O)(O)OP(=O)(O)OC[C@H]1O[C@@H](n2cnc3c(N)ncnc32)[C@H](O)[C@@H]1OP(=O)(O)O)[C@@H](O)C(=O)NCCC(=O)NCCS [CoA] was tested. Which “X-ray crystallography; native MS” value (HypX [3]) did it give?
Its value is “HypX binds CoA constitutively with a high binding affinity”.

And the X-ray crystallography (HypX [4])?
Its X-ray crystallography is “CoA is able to adopt the extended conformation in the A392F-I419F variant”.

And the X-ray crystallography (HypX [5])?
The X-ray crystallography was “this variant binds CoA with the folded conformation as is the case of wild-type”.

What about the “native MS” value (HypX [6]) of the same compound?
The value was “showed two MS peaks due to apo (CoA-free) and holo (CoA-bound) form”.

Which “X-ray crystallography, crystal soaking” value (HypX [7]) does the source give for Nc1nc2c(c(=O)[nH]1)N[C@@H](CNc1ccc(C(=O)N[C@@H](CCC(=O)O)C(=O)O)cc1)CN2 [THF] here?
Its value is “We obtained HypX-THF complex by soaking Form I HypX crystals with THF”.

What about the “X-ray crystallography, crystal soaking” value (HypX [8]) of the same compound?
Its value is “THF is bound at the N-terminal region of the cavity at the same position”.

From paper PMC6802093, “Structural characterization of HypX responsible for CO biosynthesis in the maturation of NiFe-hydrogenase” (Communications Biology, 2019)
